Literature values in US5288707A, “Borolysine peptidomimetics” (Sandoz Ltd., priority 1990, dated 1994).

Legend:
[1] = in vivo
thrombin = thrombin (Homo sapiens, UniProt P00734); settings: reversible and irreversible inhibitors, value given as a range of magnitude

| Compound | LD50 value [1] | inhibition in vitro (thrombin) |
| --- | --- | --- |
| N=C(N)NCCC[C@@H](C=O)NC(=O)[C@@H]1CCCN1C(=O)[C@H](N)Cc1ccccc1 [D-Phe-Pro-Arginal] | quite a low | ~10^-8 M |
| NC(N)=NCCC[C@H](NC(=O)[C@@H]1CCCN1C(=O)[C@H](N)Cc1ccccc1)C(=O)CCl [D-Phe-Pro-Arg-CH2 Cl] | – | ~10^-8 M |
